Source: patent US4127656A, “Method of inhibiting lipogensis with 3-(benzoyl)oxiranecarboxamides” (Shell Oil Company, priority 1978, dated 1978)

Legend:
lipogenesis (liver) [1] = experiment: inhibition of glucose incorporation into lipid in chicken liver tissue slices; format: cell-based; conditions: 100 micrograms per milliliter, 37° C., 2 hours
Excerpt: (§1) The manner in which they cause this effect is not known with certainty; it is believed that they interfere with the synthesis of fatty acids in the tissues. Their effectiveness for this purpose has been ascertained by immersing samples of animal liver or adipose tissue in a liquid medium containing radioactive glucose and the test chemical, for a period of time, then isolating the lipid from the treated tissues and determining the up-take of the radioactive carbon by means of scintillation counting techniques. These tests were conducted in both liver and adipose tissue, because in some animals the primary site of lipogenesis appears to be liver tissue, while in others it appears to be adipose tissue. The test animals were pigs, chickens and sheep.
(§2) Described in more detail, the tests were conducted according to the following general procedure: […]
(§3) The incubation was terminated by addition of 0.25 milliliter of 1 N sulfuric acid. […] The extracts were washed according to Folch et al. (J. Biol. Chem., 226, 497-509, (1957)), air dried, and counted in a liquid scintillation counter with 15 milliliters of counting fluid (two parts toluene containing 0.4% w/v New England Nuclear Omnifluor:one part Triton X-100). […] From the date obtained were calculated the percent inhibition of lipid synthesis by the test compounds in each case. […]

lipogenesis (liver) [2] = experiment: inhibition of glucose incorporation into lipid in sheep liver tissue slices; format: cell-based; conditions: 100 micrograms per milliliter, 37° C., 2 hours
Excerpt: as §1, §2, §3

[3] = system: lipogenesis (swine adipose tissue); experiment: inhibition of lipogenesis from glucose-U-14C in pig adipose tissue slices (percent inhibition of lipid synthesis); format: cell-based, pig (swine); conditions: Sus scrofa, 100 micrograms per milliliter, 37° C., 2 hours, triplicate, read-out: Percent Inhibition (of lipogenesis compared to control)
Excerpt: as §1
Described in more detail, the tests were conducted according to the following general procedure:
Tissue slices (200 milligrams for liver and 150 milligrams for adipose tissue) were incubated at 37° C. for 2 hours with shaking in 3 milliliters of Krebs-Ringer bicarbonate solution containing one-half the normal calcium ion concentration, 60 micromoles of glucose, 0.5 microCurie of glucose-U^14 C., 300 microunits of insulin, and 5% dimethyl sulfoxide (DMSO). The test compounds were added as a suspension in DMSO and were present at a concentration of 100 micrograms per milliliter of the incubation mixture.
The incubation was terminated by addition of 0.25 milliliter of 1 N sulfuric acid. The resulting mixture was extracted with a total of 25 milliliters of chloroform:methanol (2:1, v/v). The extracts were washed according to Folch et al. (J. Biol. Chem., 226, 497-509, (1957)), air dried, and counted in a liquid scintillation counter with 15 milliliters of counting fluid (two parts toluene containing 0.4% w/v New England Nuclear Omnifluor:one part Triton X-100). The tests were conducted in triplicate and were accompanied by control tests in which all ingredients,proportions and conditions were the same except that no test compound was included. From the date obtained were calculated the percent inhibition of lipid synthesis by the test compounds in each case.
Compound 1 was tested with respect to all of the animals. The other compounds were tested only with respect to the pig.
From these and other tests, it has been established that in pigs there is little lipogenic activity in the liver tissue. From these and other tests, it also has been established that swine adipose tissue utilizes glucose for lipogenesis, and to be the major site of fatty acid synthesis. The data obtained from the tests using adipose tissue and glucose are set out in Table 1, as the percent inhibition of lipogenesis compared to the results obtained in the control tests wherein only the test compound was omitted.

[4] = system: lipogenesis (adipose tissue); experiment: inhibition of glucose incorporation into lipid in sheep adipose tissue slices; format: cell-based; conditions: 100 micrograms per milliliter, 37° C., 2 hours
Excerpt: as §1, §2, §3

NC(=O)[C@@H]1O[C@H]1C(=O)c1ccc(Cl)cc1 (relative stereo) [Compound 1, 3-(4-chlorobenzoyl)oxiranecarboxamide(trans)]
inhibition of glucose incorporation into the liver (lipogenesis (liver) [1]): 54%
inhibition of glucose incorporation in the liver (lipogenesis (liver) [2]): 15%
inhibition at 100 µg/mL [3]: 94%
inhibition of glucose incorporation in adipose tissue [4]: 65%

CN(C)C(=O)[C@@H]1O[C@H]1C(=O)c1ccc(Cl)cc1 (relative stereo) [Compound 2, 3-(4-chlorobenzoyl)-N,N-dimethyloxiranecarboxamide(trans)]
inhibition at 100 µg/mL [3]: 70%

CNC(=O)[C@@H]1O[C@H]1C(=O)c1ccc(Cl)cc1 (relative stereo) [Compound 3, 3-(4-chlorobenzoyl)-N-methyloxiranecarboxamide(trans)]
inhibition at 100 µg/mL [3]: 96%

NC(=O)[C@@H]1O[C@H]1C(=O)c1ccc(Cl)c(Cl)c1 (relative stereo) [Compound 4, 3-(3,4-dichlorobenzoyl)oxiranecarboxamide(trans)]
inhibition at 100 µg/mL [3]: 96%

Cc1ccc(C(=O)[C@@H]2O[C@H]2C(N)=O)cc1 (relative stereo) [Compound 5, 3-(4-methylbenzoyl)oxiranecarboxamide(trans)]
inhibition at 100 µg/mL [3]: 89%

NC(=O)[C@@H]1O[C@H]1C(=O)c1ccccc1 (relative stereo) [Compound 6, 3-(benzoyl)oxiranecarboxamide(trans)]
inhibition at 100 µg/mL [3]: 91%

CC(C)NC(=O)[C@@H]1O[C@H]1C(=O)c1ccc(Cl)cc1 (relative stereo) [Compound 7, 3-(4-chlorobenzoyl)-N-(1-methylethyl)oxiranecarboxamide(trans)]
inhibition at 100 µg/mL [3]: 90%

NC(=O)[C@@H]1O[C@H]1C(=O)c1cccc([N+](=O)[O-])c1 (relative stereo) [Compound 8, 3-(3-nitrobenzoyl)oxiranecarboxamide(trans)]
inhibition at 100 µg/mL [3]: 96%

C=CCNC(=O)[C@@H]1O[C@H]1C(=O)c1ccc(Cl)cc1 (relative stereo) [Compound 9, 3-(4-chlorobenzoyl)-N-(2-propenyl)oxiranecarboxamide(trans)]
inhibition at 100 µg/mL [3]: 94%

O=C(c1ccc(Cl)cc1)[C@@H]1O[C@H]1C(=O)N1CCOCC1 (relative stereo) [Compound 10, (4-chlorophenyl) (3-(4-morpholinylcarbonyl)oxiranyl)methanone(trans)]
inhibition at 100 µg/mL [3]: 77%

CC(=O)Nc1ccc(C(=O)[C@@H]2O[C@H]2C(N)=O)cc1 (relative stereo) [Compound 11, 3-(4-acetamidobenzoyl)oxiranecarboxamide(trans)]
inhibition at 100 µg/mL [3]: 23%

COc1ccc(C(=O)[C@@H]2O[C@H]2C(N)=O)cc1 (relative stereo) [Compound 12, 3-(4-methoxybenzoyl)oxiranecarboxamide(trans)]
inhibition at 100 µg/mL [3]: 64%

C#CCNC(=O)[C@@H]1O[C@H]1C(=O)c1ccc(Cl)cc1 (relative stereo) [Compound 13, 3-(4-chlorobenzoyl)-N-(2-propynyl)oxiranecarboxamide(trans)]
inhibition at 100 µg/mL [3]: 87%

NC(=O)[C@@H]1O[C@H]1C(=O)c1ccc(Br)cc1 (relative stereo) [Compound 14, 3-(4-bromobenzoyl)oxiranecarboxamide(trans)]
inhibition at 100 µg/mL [3]: 90%

NC(=O)[C@@H]1O[C@H]1C(=O)c1ccc(F)cc1 (relative stereo) [Compound 15, 3-(4-fluorobenzoyl)oxiranecarboxamide(trans)]
inhibition at 100 µg/mL [3]: 90%

NC(=O)[C@@H]1O[C@H]1C(=O)c1ccc(Cl)cc1Cl (relative stereo) [Compound 16, 3-(2,4-dichlorobenzoyl)oxiranecarboxamide(trans)]
inhibition at 100 µg/mL [3]: 91%

NC(=O)[C@@H]1O[C@H]1C(=O)c1cccc(C(F)(F)F)c1 (relative stereo) [Compound 17, 3-(3-(trifluoromethyl)benzoyl)oxiranecarboxamide(trans)]
inhibition at 100 µg/mL [3]: 94%
